Assay results published in US10238642B2, “Methods for treating neurogenic orthostatic hypotension” (Theravance Biopharma R&D IP, LLC, priority 2016, dated 2019).
pEC50: −log10 of the molar value.

Key:
anesthetized rats = assay: Cardiovascular model in anesthetized rat: intrinsic effect on MAP and HR; assay type: in vivo; details: IP
Protocol: These studies were conducted to assess the effect of a single administration of 4-[2-(2,4,6-trifluorophenoxymethyl)phenyl]piperidine on heart rate (HR) and mean arterial pressure (MAP) in anesthetized rats.
Normotensive male Sprague-Dawley rats weighing between 250-350 g were anesthetized with an intraperitoneal injection (IP) of thiobutabarbital (Inactin). All animals were kept under complete anesthesia (i.e., absence of response to toe pinch test) for the surgery and for the duration of the study. The right common carotid artery and jugular vein were isolated and catheterized. The trachea was intubated to keep the airway open during the study. After completion of surgery, the arterial catheter was connected to a pressure transducer and baseline blood pressure [Systolic (SBP), Mean Arterial (MAP) and Diastolic (DBP)] and heart rate (HR) were recorded using the Notocord-HEM data acquisition system. Following at least 60 min of baseline (i.e., the last 10 min was stable), vehicle (10% Tween20, 2 mL/kg, IP) was administered and any potential effect was monitored for at least 10 min. After this period, rats were injected with either vehicle or 4-[2-(2,4,6-trifluorophenoxymethyl)phenyl]piperidine ([…], 2 mL/kg, IP) and changes in MAP and HR were monitored for 25 min. […]

[1] = test system: tyramine pressor response; assay: Cardiovascular model in anesthetized rat: inhibition of tyramine pressor response; assay type: in vivo; details: iv, read-out: estimated potency for inhibition of tyramine-induced increase in SBP (Tyr EC50)
CYP1A2 = target: T1, CYP1A2 (Homo sapiens, UniProt P05177); details: cited from earlier work
T1 sequence (P05177 1-516): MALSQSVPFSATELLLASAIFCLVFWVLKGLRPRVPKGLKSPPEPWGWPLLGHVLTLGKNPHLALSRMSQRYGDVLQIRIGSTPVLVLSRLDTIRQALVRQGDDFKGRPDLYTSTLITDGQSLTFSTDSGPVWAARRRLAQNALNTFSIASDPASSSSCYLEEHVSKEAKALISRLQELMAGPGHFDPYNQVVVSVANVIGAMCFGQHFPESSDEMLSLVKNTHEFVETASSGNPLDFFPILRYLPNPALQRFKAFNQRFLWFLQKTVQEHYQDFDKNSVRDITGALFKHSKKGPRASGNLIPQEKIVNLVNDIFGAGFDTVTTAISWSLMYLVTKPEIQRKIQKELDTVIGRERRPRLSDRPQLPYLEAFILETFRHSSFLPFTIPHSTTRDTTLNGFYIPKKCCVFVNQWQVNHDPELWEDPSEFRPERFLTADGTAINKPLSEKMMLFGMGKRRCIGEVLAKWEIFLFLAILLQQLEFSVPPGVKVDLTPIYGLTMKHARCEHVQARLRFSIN

Fc1cc(F)c(OCc2ccccc2C2CCNCC2)c(F)c1 [4-[2-(2,4,6-trifluorophenoxymethyl)phenyl]piperidine]
HR EC25 (free plasma concentration that produced a change in HR of 25 bpm) (anesthetized rats): 8.6 nM | MAP EC10 (free plasma concentration that produced a change in MAP of 10 mm Hg) (anesthetized rats): 101.4 nM | pEC50 [1]: 9.07 | reduction of metabolism by chemical inhibition of CYP1A2 (CYP1A2): 25%
